Measurements taken from the supplement of paper PMC10307832.

Compound: CC1=CC(=CC=C1)NC2=NC(=CS2)C3=CC=NC=C3 + Nc1nc2[nH]cc(CCc3ccc(C(=O)N[C@@H](CCC(=O)O)C(=O)O)cc3)c2c(=O)[nH]1 [Pemetrexed] (partner 0.2 µM)
Assay: relative viability (nuclei count vs DMSO), 5 days (fraction); higher = more cells survive
Settings: first compound 0.08 µM
Method in brief: (§1)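 A single step with final 0.05% Triton X-100, 1% formaldehyde and 1 ug/ml Hoechst fixed the cells and stained nuclei 5 days after treatment. Lung cancer cell lines in 1536-well plates had been treated by pin tool the day after seeding with one drug alone or a fixed anchor-drug dose plus five library-drug doses (not always all listed) in √10 steps, and nuclei were counted on 4× images. Relative viability is the ratio of nuclei in treated wells to nuclei in vehicle wells, taken as the median of duplicate plates.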

Cell Line	relative viability
HCC-78	0.907
NCI-H441	0.265
LCLC-97TM1	0.168
NCI-H2023	0.211
A-427	0.915
NCI-H460	0.0627
NCI-H1755	0.35
NCI-H520	0.706
NCI-H2405	0.921
SW 1573	0.835
201T	0.339
NCI-H1975	0.277
HCC-827	0.283
NCI-H2347	0.431
NCI-H1355	0.866
NCI-H650	0.953
CAL-12T	1.19
NCI-H1666	0.787
EPLC-272H	0.404
NCI-H23	0.629
NCI-H1915	0.496
NCI-H1437	0.349
NCI-H322M	0.564
NCI-H2085	0.774
HCC-15	0.222
PC-3 [JPC-3]	0.909
EKVX	0.361
LC-2-ad	0.269

Same assay, conditions: first compound 0.253 µM

Cell Line	relative viability
NCI-H3122	0.202
HOP-62	0.412
LXF-289	0.924
BEN	0.841
HARA	0.22
HCC-78	0.963
NCI-H441	0.265
LCLC-97TM1	0.161
NCI-H2023	0.18
A-427	1.02
NCI-H460	0.0625
NCI-H1755	0.445
NCI-H520	0.678
NCI-H2405	0.985
SW 1573	0.746
201T	0.293

Cell Line	relative viability
NCI-H1975	0.25
HCC-827	0.274
NCI-H2347	0.42
NCI-H1355	0.778
NCI-H650	0.88
CAL-12T	0.94
NCI-H1666	0.749
EPLC-272H	0.375
NCI-H23	0.447
NCI-H1915	0.493
NCI-H1437	0.326
NCI-H322M	0.576
NCI-H2085	0.943
HCC-15	0.214
EKVX	0.333
LC-2-ad	0.281

Same assay, conditions: first compound 0.8 µM

Cell Line	relative viability
NCI-H3122	0.191
HOP-62	0.458
LXF-289	0.708
BEN	0.936
HARA	0.203
HCC-78	0.827
NCI-H441	0.246
LCLC-97TM1	0.19
NCI-H2023	0.274
A-427	0.987
NCI-H460	0.0614
NCI-H1755	0.393
NCI-H520	0.677
NCI-H2405	0.999
SW 1573	0.787
201T	0.321

Cell Line	relative viability
NCI-H1975	0.257
HCC-827	0.282
NCI-H2347	0.41
NCI-H1355	0.791
NCI-H650	1.07
CAL-12T	1.15
NCI-H1666	0.603
EPLC-272H	0.264
NCI-H23	0.66
NCI-H1915	0.508
NCI-H1437	0.27
NCI-H322M	0.608
NCI-H2085	0.84
HCC-15	0.203
PC-3 [JPC-3]	1.15
LC-2-ad	0.308

Same assay, conditions: first compound 2.53 µM

Cell Line	relative viability
NCI-H3122	0.226
HOP-62	0.369
LXF-289	0.871
BEN	0.584
HARA	0.255
HCC-78	0.917
NCI-H441	0.255
LCLC-97TM1	0.168
NCI-H2023	0.195
A-427	0.899
NCI-H460	0.0648
NCI-H1755	0.401
NCI-H520	0.865
SW 1573	0.763
201T	0.301
NCI-H1975	0.24

Cell Line	relative viability
HCC-827	0.256
NCI-H2347	0.404
NCI-H1355	0.75
NCI-H650	0.863
CAL-12T	1.05
NCI-H1666	0.738
EPLC-272H	0.31
NCI-H23	0.582
NCI-H1915	0.508
NCI-H1437	0.31
NCI-H322M	0.615
NCI-H2085	0.806
HCC-15	0.194
PC-3 [JPC-3]	0.961
EKVX	0.32
LC-2-ad	0.258

Same assay, conditions: first compound 8 µM

Cell Line	relative viability
NCI-H3122	0.19
HOP-62	0.319
LXF-289	0.792
BEN	0.682
HARA	0.276
HCC-78	0.9
NCI-H441	0.255
LCLC-97TM1	0.182
NCI-H2023	0.187
A-427	0.932
NCI-H460	0.0687
NCI-H1755	0.397
NCI-H520	0.644
NCI-H2405	0.903
SW 1573	0.763
201T	0.334
NCI-H1975	0.239

Cell Line	relative viability
HCC-827	0.272
NCI-H2347	0.385
NCI-H1355	0.692
NCI-H650	1.06
CAL-12T	1.07
NCI-H1666	0.674
EPLC-272H	0.332
NCI-H23	0.778
NCI-H1915	0.401
NCI-H1437	0.283
NCI-H322M	0.624
NCI-H2085	0.711
HCC-15	0.214
PC-3 [JPC-3]	1.05
EKVX	0.328
LC-2-ad	0.276

Compound: Cc1ccc(NC(=O)c2ccc(CN3CCN(C)CC3)cc2)cc1Nc1nc(-c2cccnc2)cs1 [Masitinib] + O=C(CCCCCCC(=O)Nc1ccccc1)NO [Vorinostat] (partner 1 µM)
Assay: as above
Settings: first compound 0.01 µM
Method in brief: as §1

Cell Line	relative viability
NCI-H3122	0.844
HOP-62	0.588
LXF-289	0.646
BEN	0.616
HARA	0.498
HCC-78	0.485
NCI-H441	0.856
LCLC-97TM1	0.534
NCI-H2023	0.493
A-427	0.608
NCI-H460	0.766
NCI-H1755	0.617
NCI-H520	0.796
NCI-H2405	0.791
SW 1573	0.645
201T	0.74

Cell Line	relative viability
NCI-H1975	0.693
HCC-827	0.603
NCI-H2347	0.601
NCI-H1355	0.631
NCI-H650	0.458
CAL-12T	0.942
NCI-H1666	1.08
EPLC-272H	0.4
NCI-H23	0.564
NCI-H1437	0.798
NCI-H322M	0.831
NCI-H2085	0.7
HCC-15	0.789
PC-3 [JPC-3]	0.753
EKVX	0.626
LC-2-ad	0.546

Same assay, conditions: first compound 0.03162 µM

Cell Line	relative viability
NCI-H3122	0.982
HOP-62	0.573
LXF-289	0.818
BEN	0.533
HARA	0.539
HCC-78	0.435
NCI-H441	0.75
LCLC-97TM1	0.778
NCI-H2023	0.583
A-427	0.827
NCI-H460	0.418
NCI-H1755	0.732
NCI-H520	0.703
NCI-H2405	0.937
SW 1573	0.763
201T	1.05

Cell Line	relative viability
NCI-H1975	0.736
HCC-827	0.845
NCI-H2347	0.543
NCI-H1355	0.518
NCI-H650	0.527
CAL-12T	0.756
NCI-H1666	0.875
NCI-H23	0.462
NCI-H1915	0.488
NCI-H1437	0.799
NCI-H322M	0.821
NCI-H2085	0.829
HCC-15	0.814
PC-3 [JPC-3]	0.554
EKVX	0.653
LC-2-ad	0.666

Same assay, conditions: first compound 0.1 µM

Cell Line	relative viability
NCI-H3122	1.15
HOP-62	0.681
LXF-289	0.65
BEN	0.557
HARA	0.57
HCC-78	0.468
NCI-H441	1.12
LCLC-97TM1	0.472
NCI-H2023	0.66
A-427	0.791
NCI-H460	0.841
NCI-H1755	0.647
NCI-H520	0.755
NCI-H2405	0.858
SW 1573	0.929
201T	0.774

Cell Line	relative viability
NCI-H1975	0.724
HCC-827	0.712
NCI-H2347	0.647
NCI-H1355	0.633
NCI-H650	0.415
CAL-12T	0.904
NCI-H1666	1.09
EPLC-272H	0.392
NCI-H23	0.547
NCI-H1437	0.932
NCI-H322M	0.881
NCI-H2085	0.67
HCC-15	0.868
PC-3 [JPC-3]	0.779
EKVX	0.643
LC-2-ad	0.584

Same assay, conditions: first compound 0.3162 µM

Cell Line	relative viability
NCI-H3122	1.14
HOP-62	0.746
LXF-289	0.854
BEN	0.528
HARA	0.521
HCC-78	0.47
NCI-H441	1.01
LCLC-97TM1	0.887
NCI-H2023	0.611
A-427	0.826
NCI-H460	0.647
NCI-H1755	0.758
NCI-H520	0.932
NCI-H2405	0.938
SW 1573	0.968
201T	0.78
NCI-H1975	0.716

Cell Line	relative viability
HCC-827	0.876
NCI-H2347	0.651
NCI-H1355	0.464
NCI-H650	0.484
CAL-12T	0.986
NCI-H1666	1.02
EPLC-272H	0.464
NCI-H23	0.454
NCI-H1915	0.505
NCI-H1437	0.789
NCI-H322M	0.91
NCI-H2085	0.701
HCC-15	0.827
PC-3 [JPC-3]	0.748
EKVX	0.678
LC-2-ad	0.694

Same assay, conditions: first compound 1 µM

Cell Line	relative viability
NCI-H3122	1.05
HOP-62	0.687
LXF-289	0.743
BEN	0.557
HARA	0.485
HCC-78	0.388
NCI-H441	0.894
LCLC-97TM1	0.712
NCI-H2023	0.721
A-427	0.827
NCI-H460	0.758
NCI-H1755	0.693
NCI-H520	0.687
NCI-H2405	0.909
SW 1573	0.973
201T	0.914
NCI-H1975	0.711

Cell Line	relative viability
HCC-827	0.745
NCI-H2347	0.624
NCI-H1355	0.577
NCI-H650	0.404
CAL-12T	0.684
NCI-H1666	1.09
EPLC-272H	0.425
NCI-H23	0.501
NCI-H1915	0.541
NCI-H1437	0.75
NCI-H322M	0.882
NCI-H2085	0.822
HCC-15	0.811
PC-3 [JPC-3]	0.667
EKVX	0.696
LC-2-ad	0.718
